Assay in all cases: NCI-60 cell line screen, 48 h
In experiment [1] the test system is M14.
Experiment [2] concerns NCI-H460.
The subject of experiment [3] is EKVX.
In experiment [4] the test system is A549.
Experiment [5] deals with OVCAR-8.
For experiment [6], the system named is K562.
In experiment [7] the test system is SN12C.
For experiment [8], the system named is UACC-62.
In experiment [9] the test system is IGROV-1.
Experiment [10] has as its system HOP-62.
Experiment [11] has as its system SK-MEL-2.
Experiment [12] concerns TK-10.
Experiment [13] has as its system SF-268.
Experiment [14] relates to U-251.
For experiment [15], the system named is A498.
For experiment [16], the system named is SF-295.
The test system of experiment [17] is HCT-15.
The test system of experiment [18] is OVCAR-4.
In experiment [19] the test system is RPMI-8226.
Experiment [20] has as its system SR.

Data on 11 compounds can be found in ChEMBL document CHEMBL1201862, “PubChem BioAssay data set” (2004).

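96-well plates; 48 h exposure; 5 concentrations. Endpoints by linear interpolation between flanking doses. Not reached: highest tested concentration assigned. GI50 marks 50% less growth.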 Calls of active or inactive are those of the source. Rule as the data show it: active = GI50 up to about 1.1 µM and inactive = higher.

In the case of `Cc1ccc(C)c(NC2=NC(=O)C(CC(=O)Nc3ccc(Cl)cc3Cl)S2)c1` (stereo not drawn), the GI50 in experiment [1] is > 100 µM (inactive); in experiment [2], > 100 µM (inactive); in experiment [3], > 100 µM (inactive); in experiment [4], > 100 µM (inactive); in experiment [5] it was 66.1 µM (inactive); in [6], 80.2 µM (inactive). In addition, the GI50 in [7] is > 100 µM (inactive); in experiment [8] it was 28.9 µM (inactive); in experiment [9], > 100 µM (inactive); in experiment [10], > 100 µM (inactive); in experiment [11], 29.5 µM (inactive); in experiment [12] it was > 100 µM (inactive). For the same compound, the GI50 in experiment [13] is 37.8 µM (inactive); in experiment [14] it was 36.1 µM (inactive); in experiment [15] it was 28.6 µM (inactive); in experiment [16] it was > 100 µM (inactive); in [17], greater than 100 µM; in [18] it was 49.2 µM (inactive). Moreover, the GI50 in experiment [19] is > 100 µM (inactive).

With `Cn1c(=O)nc2n(-c3cc(Cl)ccc3Cl)c3ccccc3nc-2c1=O`, the GI50 is 3.63 µM (inactive) in experiment [1]; 2.53 µM (inactive) in [2]; 3.88 µM (inactive) in experiment [3]; 4 µM (inactive) in experiment [4]; 3.34 µM (inactive) in experiment [5]; 6.4 µM (inactive) in experiment [6]. The GI50 in [7] was 4.48 µM (inactive); in [8], 1.61 µM (inactive); in experiment [9], 13 µM (inactive); in experiment [10] it was 12 µM (inactive); in experiment [11], 5.62 µM (inactive); in experiment [12] it was 12.3 µM (inactive). Moreover, the GI50 in experiment [13] was 11.9 µM (inactive); in [14], 6.4 µM (inactive); in experiment [15], 18.6 µM (inactive); in experiment [16] it was 7.62 µM (inactive); in experiment [17] it was 3.8 µM; in [18] it was 4.33 µM (inactive). Further, in [19], the GI50 was 4.71 µM (inactive).

Regarding `COC(=O)/C(=N\NC(=O)c1ccccc1O)C(C#N)c1ccccc1` (stereo not drawn), the GI50 in experiment [1] is 31.4 µM (inactive); in [2] it was 18.9 µM (inactive); in experiment [3], 18.4 µM (inactive); in experiment [4] it was 16.6 µM (inactive); in experiment [5] it was 23.7 µM (inactive); in experiment [6], 16.4 µM (inactive). For the same compound, the GI50 was 37.4 µM (inactive) in experiment [7]; 12.1 µM (inactive) in experiment [8]; 19.5 µM (inactive) in [9]; 20.7 µM (inactive) in experiment [10]; > 50 µM (inactive) in experiment [11]; > 46.7 µM (inactive) in experiment [12]. For the same compound, the GI50 in [13] was 23.5 µM (inactive); in experiment [14] it was 32.1 µM (inactive); in experiment [15], > 25.9 µM (inactive); in [16] it was 22.1 µM (inactive); in experiment [17], 17.4 µM; in experiment [18], > 43.2 µM (inactive). For the same compound, in [19], the GI50 is 20.2 µM (inactive).

As to `COc1ccc(/C=C/c2cc(OC)c(OC)c(OC)c2)cc1`, the GI50 was 42 µM (inactive) in experiment [1]; 3.9 µM (inactive) in experiment [2]; 24.2 µM (inactive) in [3]; 7.55 µM (inactive) in experiment [4]; 15.8 µM (inactive) in [5]; 3.2 µM (inactive) in [6]. For the same compound, the GI50 in experiment [7] is 13.2 µM (inactive); in experiment [8], 3.25 µM (inactive); in [9] it was 11 µM (inactive); in experiment [10] it was 3.48 µM (inactive); in experiment [11], 2.36 µM (inactive); in [12] it was 43.7 µM (inactive). The GI50 is 15.1 µM (inactive) in experiment [13]; 2.61 µM (inactive) in experiment [14]; 3.4 µM (inactive) in experiment [15]; 2.73 µM (inactive) in experiment [16]; 2.57 µM in [17]; 41.5 µM (inactive) in [18]. The GI50 in [19] was 1.09 µM (active).

As to `Cc1ccc(/C=C/C(=O)C(C)(C)CN2CCCCC2)cc1`, the GI50 in experiment [1] is 7.31 µM (inactive); in [2] it was 8.28 µM (inactive); in experiment [3], 3.18 µM (inactive); in experiment [4], 5.68 µM (inactive); in experiment [5] it was 2.81 µM (inactive); in experiment [6], 2.27 µM (inactive). The GI50 in experiment [7] was 3.9 µM (inactive); in experiment [8], 11.1 µM (inactive); in [9], 11.4 µM (inactive); in [10], 15.7 µM (inactive); in experiment [11], 10.7 µM (inactive); in experiment [12], 11.6 µM (inactive). The GI50 in experiment [13] is 15.7 µM (inactive); in experiment [14] it was 13.7 µM (inactive); in [15], 6.24 µM (inactive); in experiment [16], 7.8 µM (inactive); in experiment [17], 3.76 µM; in experiment [18], 10.1 µM (inactive). Further, in experiment [19], the GI50 was 3.49 µM (inactive).

For `CC1(C)C[C@H](O)[C@H](O)[C@]23C(=O)O[C@H](O)[C@H]2C(C=O)=CC[C@@H]13`, the GI50 in experiment [2], in experiment [3], in [4], in [5], in experiment [6] and in experiment [7] was > 100 µM (inactive) throughout. For the same compound, the GI50 in experiment [8] is 58.9 µM (inactive); in experiment [9], > 100 µM (inactive); in [10], > 100 µM (inactive); in experiment [20], > 100 µM (inactive); in experiment [12], > 100 µM (inactive); in [13], > 100 µM (inactive). The GI50 was 96.2 µM (inactive) in experiment [14], > 100 µM (inactive) in [16], greater than 100 µM in [17] and > 100 µM (inactive) in experiment [19].

In the case of `CCOCN1COCN(C)C1=O`, the GI50 in [1], in experiment [2], in [3], in experiment [4], in [5] and in experiment [6] was > 100 µM (inactive) throughout. Moreover, the GI50 in experiment [7], in experiment [8], in experiment [9], in experiment [10], in [11] and in experiment [12] was > 100 µM (inactive) in each case. Also, the GI50 in [13] is > 100 µM (inactive); in experiment [14] it was > 100 µM (inactive); in [15], > 100 µM (inactive); in [16] it was > 100 µM (inactive); in [17], greater than 100 µM; in experiment [18], > 100 µM (inactive). The GI50 in [19] was > 100 µM (inactive).

For the compound `COc1cc(OC)c(OC)cc1/C=N/NC(=O)N/N=C/c1cc(OC)c(OC)cc1OC`, the GI50 is > 100 µM (inactive) in experiment [1]; > 100 µM (inactive) in [2]; > 100 µM (inactive) in experiment [3]; > 100 µM (inactive) in [4]; 91 µM (inactive) in experiment [5]; > 100 µM (inactive) in experiment [6]. Moreover, the GI50 in [7], in experiment [8], in experiment [9], in [11], in experiment [12] and in experiment [13] was > 100 µM (inactive) throughout. The GI50 in experiment [14] is > 100 µM (inactive); in experiment [15], > 100 µM (inactive); in experiment [16], > 100 µM (inactive); in experiment [17], greater than 100 µM; in experiment [18], > 100 µM (inactive); in experiment [19], > 100 µM (inactive).

On to `COc1c(Br)cc2ccccc2c1-c1c(OC)c(Br)cc2ccccc12`, for which the GI50 in [1] was > 100 µM (inactive); in experiment [2] it was > 100 µM (inactive); in experiment [3] it was > 100 µM (inactive); in experiment [4], > 100 µM (inactive); in [5], > 100 µM (inactive); in [6] it was 38.9 µM (inactive). The GI50 in [8], in experiment [9], in [10], in [11], in [12] and in experiment [13] was > 100 µM (inactive) throughout. Besides, the GI50 was > 100 µM (inactive) in experiment [14]; > 100 µM (inactive) in experiment [15]; > 100 µM (inactive) in [16]; greater than 100 µM in [17]; > 100 µM (inactive) in experiment [18]; 80.5 µM (inactive) in experiment [19].

In the case of `CC1CCC[P+](Cc2ccccc2)(c2ccccc2)CC1` (stereo not drawn), the GI50 in experiment [1] was 35.9 µM (inactive); in [2], 79.6 µM (inactive); in experiment [3], > 100 µM (inactive); in experiment [4], > 100 µM (inactive); in experiment [5], 59.8 µM (inactive); in experiment [6], 31.3 µM (inactive). The GI50 in experiment [7] is > 100 µM (inactive); in experiment [8], 25 µM (inactive); in [9], 39 µM (inactive); in experiment [10], > 100 µM (inactive); in experiment [11] it was 21.6 µM (inactive); in experiment [12] it was > 100 µM (inactive). Besides, the GI50 in experiment [13] is 89.1 µM (inactive); in experiment [14], 77.4 µM (inactive); in experiment [15], > 100 µM (inactive); in [17], greater than 100 µM; in experiment [18] it was 15.8 µM (inactive); in [19] it was 7.23 µM (inactive).

On to `CCCN(CCCC(NC(C)=O)C(=O)NCc1ccccc1)C(=O)N(C)N=O` (stereo not drawn), for which the GI50 in [1], in experiment [2], in [3], in [4], in experiment [5] and in [6] was > 100 µM (inactive) each time. Further, the GI50 in [7], in experiment [8], in experiment [9], in experiment [10], in [11] and in experiment [12] was > 100 µM (inactive) throughout. The GI50 was > 100 µM (inactive) in experiment [13]; > 100 µM (inactive) in experiment [14]; > 100 µM (inactive) in experiment [15]; > 100 µM (inactive) in [16]; greater than 100 µM in experiment [17]; > 100 µM (inactive) in experiment [18]. For the same compound, the GI50 in [19] was > 100 µM (inactive).
